melting point [°C]	SMILES
210 to 212	O=C(O)CCc1nc(C(=O)O)ccc1O
58 to 65	O=C(CCNC(=O)c1ccccc1C(=O)O)NO
173 to 174	CC(C)Nc1c(-c2ccc(S(C)(=O)=O)cc2)cnn(CC(F)(F)F)c1=O
96 to 99	Cc1cc2cnnc(Cl)c2n1CC(C)C
121 to 122	C[C@@](O)(C(=O)Nc1ccc(S(=O)(=O)c2ccccc2)cc1F)C(F)(F)F
174 to 176	CN(C)C(=O)n1c(CN2CCN(c3ccccn3)CC2)nc2ccccc21
102 to 104	CCOc1nc(SC)nc(N2CCS(=O)CC2)c1[N+](=O)[O-]
185 to 186	Cc1ccc(C(=O)NC(NC(=S)Nc2cccc([N+](=O)[O-])c2)C(F)(F)F)cc1 (stereo unspecified)
> 250	O=Cc1c[nH]c2c1ccc1c2[nH]c2cccc(Br)c21
117 to 119	COc1ccc(-n2nc(Cl)cc2-c2ccc(OCCNS(C)(=O)=O)cc2)cc1
233 to 234	O=C(O)c1cccc(-c2nc(-c3ccccc3F)no2)c1
185 to 186	N/C(=C1/Sc2ccccc2C1=O)c1ccccc1[N+](=O)[O-]
196 to 199	O=C(Nc1ccc(C(F)(F)F)cc1)N1CC2CCc3cc(Cl)ccc3C2=N1 (stereo unspecified)
137 to 140	O=C(Cc1cccc2ccccc12)N1CC=C(c2cccc(C(F)(F)F)c2)CC1
275 to 280	Cc1nn(-c2ccccc2)nc1C(=O)N1CCC2(CC1)CSC1=C(O2)c2ccccc2C(=O)C1=O
225 to 226	COC(=O)c1cc(S(N)(=O)=O)cc2c1OCCO2
208 to 210	COc1ccc(NC(C)=O)cc1C(=O)O
99 to 100	CN(C)C=Nc1ncc(I)c(Cl)n1
66 to 68	O=C(c1cccs1)N1CCCC1
201 to 204	COc1cccc2c(=O)n(C)c(-c3ccc(OC4CCN(C5CCC5)CC4)cc3)nc12
98 to 100	CCCCCC(O)C=CC1C(O)CC(O)C1CCCCCCC(=O)O (stereo unspecified)
87	ClC(Cl)=CCOc1cc(Cl)c(OCc2cccc(Cl)c2)c(Cl)c1
64.5 to 66	O=C(N1CCCCCC1)N1CC(Oc2cccc(C(F)(F)F)c2)C1
186	COC(=O)C(=Cc1ccc(-c2cccc(N(C)C(=O)Nc3ccccc3)c2)cc1)OC
141 to 142	Cc1nn(C)c(OC(=O)C(Cl)=C(Cl)Cl)c1C(=O)c1ccc(Cl)cc1Cl

melting point [°C]	SMILES
125	COc1ccc(Cc2cccc(C(Cl)(C3=NCCCN3)c3ccccc3)c2)cc1 (stereo unspecified)
136 to 138	O=S(=O)(c1ccc(F)cc1)c1ccc(SC2SCC(O)C(O)C2O)cc1 (stereo unspecified)
138 to 139	CCc1cc2c3ccccc3c(C=O)cc2c2ccccc12
196	CC(C)(C)C1=C(c2cc3cc(O)ccc3s2)OCC1(C)C
264 to 266	CSc1[nH]n(-c2c(Cl)cc(Cl)cc2Cl)c2nc(Cc3cccc(O)c3)nc(=O)c1-2
206 to 208	CCCC12CCC(=O)C=C1c1c(cc(OCC(=O)O)c(Cl)c1Cl)C2O (stereo unspecified)
222 to 223	Oc1c(Br)cc(-c2c3ccccc3c(Cl)c3sc4ccccc4c23)cc1Br
100	CCCNC(=O)c1ccc2c(c1)N(C(C)CN(C)CC)c1ccccc1S2 (racemic)
94 to 96	COc1cc([N+](=O)[O-])ccc1CBr
158 to 161	Cc1cc(C(O)(C(F)(F)F)C(F)(F)F)cc(C)c1NCCN
78 to 82	COC(=O)OCC1OC(Oc2cc(C)cc(O)c2C(=O)CCc2ccc3occc3c2)C(O)C(O)C1O (stereo unspecified)
235 to 237	Nc1nc2cc(Cl)c(Cl)cc2nc1-c1cccs1
136 to 138	COC1C(OC(=O)c2ccc([N+](=O)[O-])cc2)C=C(C)C(=O)CC1(C)C (stereo unspecified)
104 to 106	Cc1ccc(S(=O)(=O)OC2CCc3c(c4ccccc4n3C)C2)cc1 (stereo unspecified)
317 to 321	CCNC(=O)Nc1nc2cc(-c3cncnc3)cc(C(=O)NCC)n2n1
130 to 131	CN1C(=O)CC[C@]2(C)c3ccc(C(=O)OC(c4ccccc4)c4ccccc4)cc3CC[C@@H]12
139 to 140	COc1ccc2c(c1)CCc1nn(-c3ccccn3)c(O)c1-2
245	COc1nc(C)nc(NNC(N)=NS(=O)(=O)c2ccccc2OC(F)(F)F)n1
88 to 90	Cc1c(C#N)sc2nc(Cc3ccccc3)nc(N3CCOCC3)c12
212 to 215	Cc1ccc(S(=O)(=O)Nc2ccc(C(N)=O)cc2C(N)=O)cc1
31 to 32	ClCc1coc(Cc2ccccc2)n1
104 to 106	CN1CCC(=C2c3ccccc3Sc3ccc(SC(F)(F)F)cc32)CC1
235 to 237	C=CCc1c2c(cc3c(=O)cc(C(=O)O)oc13)CCCC2
49 to 53	CNc1nc(Cl)c(OC(F)F)c(OC)n1
195 to 197	COC(=O)NC1CCN(c2ncc3ncnc(Nc4ccc(F)c(Cl)c4)c3n2)CC1

melting point [°C]	SMILES
174 to 175	COC(=O)NC(=O)NS(=O)(=O)c1ccc(Cl)cc1
78 to 82	CCCC(=O)c1ccc(OCC(=O)OC)cc1
170 to 172	Cc1ccc(-c2ccccc2-c2nn[nH]c2C#N)cc1
51 to 52	COC(=O)c1cc(C(F)(F)F)ccc1N
77 to 79	CC(C)(C)OC(=O)NCC(O)CN (stereo unspecified)
196 to 199	Cc1nc2cc3c(cc2c(=O)[nH]1)C(N(C)c1ccc(C(=O)NC(CCc2nnn(CC(=O)O)n2)C(=O)O)c(F)c1)CC3 (mixture of isomers)
55 to 58	CC(Sc1nc(N)cc(Cl)n1)c1ccc2ccccc2c1 (stereo unspecified)
58 to 60	CC(C)(C)OC(=O)N1CCc2c(oc3cc(S(=O)(=O)c4cccc(F)c4)ccc23)C1(C)C
106	C=CC(=O)Oc1ccc(-c2cccc(-c3ccc(OC(=O)C=C)cc3)c2)cc1
154 to 155	O=C(NCCOc1ccc(CC(Oc2ccc(C(F)(F)F)cc2)C(=O)O)cc1)c1ccc(-c2ccccn2)cc1 (stereo unspecified)
185 to 187	CCCC(=O)Nc1nc2ccccc2n2c(CC)nnc12
210	Cc1c(C#N)c(N)nc(Cl)c1C#N
184 to 188	CCCc1nc(C=NNC(=O)OCC)c(C)[nH]1
96 to 98	COCCNc1c([N+](=O)[O-])cc(C(F)(F)F)c2sc(=O)sc12
140 to 143	CCOC(=O)c1cn2c(-c3nn(C)c(OC(F)F)c3Cl)c(F)cc(Cl)c2n1
68 to 70	CCCc1c(OCCCOc2ccc3c(c2CCC)OC(CCC(=O)OCC)CC3)ccc(C(C)=O)c1O (stereo unspecified)
189 to 191	N#CC1(Cc2nnn[nH]2)C2CCCC1CCC2 (stereo unspecified)
133 to 135	Cn1cnc2cc(F)ccc2c1=O
188	CCCc1c(OCc2ccc(C(=O)O)cc2)ccc(C(C)=O)c1O
220 to 222	Clc1cc(Br)c2oc3c(Cl)c(Br)c(Cl)c(Br)c3c2c1
144 to 145	CCCc1nn(C)c2c(=O)n(CCOc3ccc(CC(OCC)C(=O)O)cc3)c(CC)nc12 (single isomer, unassigned; (+))
175	O=C(c1ccc(I)cc1)c1ccc2c(c1)c(-c1cccc(Cl)c1)nc1nnnn12
215 to 217	O=C(O)C=Cc1ccc2cc[nH]c2c1
66 to 67	Cc1oc(-c2ccccc2)nc1COc1ccc(CCOS(C)(=O)=O)cc1
268 to 269	Cc1ccc(Nc2nnc(-c3ccc(N4CCOCC4)c([N+](=O)[O-])c3)s2)cc1Cl

melting point [°C]	SMILES
135 to 136	CCOC(=O)C1=C(C)NC(C)=C(C(=O)N[C@H](C(=O)OCC)C(C)C)[C@@H]1c1cccc([N+](=O)[O-])c1
148 to 151	CCSCCC(=O)NCC(=O)N1Cc2ccccc2Oc2ccc(Cl)cc21
96 to 98	O=[N+]([O-])c1ccc(O)c(C=NCCC(F)=C(F)F)c1
285 to 288	NCCCNC(=O)c1ccc(-c2nn(-c3ccc(C(=O)O)cc3)c3ccccc23)cc1
132 to 135	O=CC1c2ccccc2C(C=O)c2ccccc21 (stereo unspecified)
300 to 302	Cc1cc(-c2cc(=O)c3cccnc3o2)ccc1O
277 to 278	CC(C)(C)c1cc(C(=O)Nc2ccc([N+](=O)[O-])cc2)cc(C(C)(C)C)c1O
253 to 256	N#Cc1c(C(N)=O)c2n(c1C1CC1)CCN(S(=O)(=O)c1ccc(C(F)(F)F)cc1)C2
214 to 218	NS(=O)(=O)c1ccc(-n2nc(C(F)F)cc2-c2ccc3c(c2)OCO3)cc1
173 to 175	COc1cc2c(c3c1OC(C)(C)C3)C(c1ccncc1)=NC(C)(C)C2
93 to 94	CN(C)C=CC(=O)C(c1ccccc1)c1ccccc1
243 to 244	CCOC(=O)N[C@H](C(=O)NN(Cc1ccc(-c2cncs2)cc1)C[C@H](O)[C@H](Cc1ccccc1)NC(=O)[C@@H](NC(=O)OC)C(C)C)C(C)C
157 to 158	CSc1ccc(N=Cc2ccc(F)cc2)cc1
155 to 156	COC1(c2cc(F)cc(OCc3ccc4c(c3)C(=O)N(C)S4(=O)=O)c2)CCOCC1
187 to 189	CCOC(=O)C=C1CSC(NC(=O)c2ccccc2)=NN1C(=O)c1ccccc1
129 to 130	CS(=O)(=O)c1cnc(Cl)c(Cl)c1
130 to 132	CC(C)(C)OC(=O)CN1C(=O)c2ccccc2S1(=O)=O
68.5 to 70	CCc1cccc(C)c1NC(=O)C(C)N (stereo unspecified)
201 to 203	CCOC(=O)c1cc(OC)c2c(c1)C(=O)c1c(F)ccc(OC)c1C2=O
78 to 82	COC(=O)CCC(=O)Nc1cccc(Oc2nc3ccccc3s2)c1
206	NC(=O)c1cc(I)cc(I)c1O
215 to 218	O=C1NC(Cc2ccc(OCc3ccccc3)cn2)C(=O)NC1Cc1ccccc1 (stereo unspecified)

SMILES	melting point [°C]
N=C(NCCNC(c1ccccc1)(c1ccccc1)c1ccccc1)N[N+](=O)[O-]	217 to 219
Cc1c(O)cc2c(c1C)CCC2c1c[nH]cn1 (stereo unspecified)	198 to 202
O=C1c2ccccc2-n2cnc(C=NO)c2[C@@H]2CCCN12	285
CN1CC=C(c2c[nH]c3ccc(NC(=N)c4ccco4)cc23)CC1	212 to 215

Source: a melting point compilation (Tetko et al.; mined from patent text by program, amines drawn as free bases though some values may be those of a salt)
